Reference: US20050165081A1, “Use of anastrozole for the treatment of post-menopausal women having early breast cancer” (priority 2001, published 2005)
Entries after “also recorded” stand apart in the source; their conditions may differ. Structures can show the parent of a compound that is named as a salt. Where two headings read alike, the source gives them in different places.

Tests used:
early breast cancer = experiment: Randomised, double-blind, multicentre adjuvant trial: time to disease recurrence / disease-free survival and new breast primaries; type: in vivo, post-menopausal women; conditions: for First event / First events: Contralateral (DCIS) / First events: Contralateral (invasive) / First events: Death - breast cancer / First events: Death - other reason / First events: Distant / First events: Locoregional: number of first events, ITT population
Description: (§1) The trial was designed to compare tamoxifen (20 mg once daily [od]) and anastrozole (1 mg od) and to compare tamoxifen (20 mg od) and the combination of anastrozole (1 mg od) plus tamoxifen (20 mg od) as adjuvant treatment in terms of: • a) time to recurrence of breast cancer (defined as the earliest of local or distant recurrence, new primary breast cancer, or death); and • b) safety and side effects. Secondary objectives of this trial were to compare (i) tamoxifen and anastrozole and (ii) to compare tamoxifen and the combination of anastrozole plus tamoxifen as adjuvant treatment in terms of: • a) time to distant recurrence; • b) survival; and • c) incidence of new breast primaries.
(§2) Specifically, the trial was designed as a randomised, double-blind, multicentre trial to compare the efficacy and safety of tamoxifen alone, anastrozole alone and anastrozole in combination with tamoxifen as adjuvant treatment for breast cancer in post-menopausal women.
Patients were assessed at entry, 3 months, 6 months and thereafter at 6-month intervals. Patients were recruited from 381 centres and in 21 countries. The patients were recruited between July 1996 and March 2000.
The double blind trial used both active and placebo anastrozole and tamoxifen tables, in order to maintain blindness to trial therapy. Anastrozole 1 mg and matching anastrozole placebo were supplied as white, film-coated tablets. Tamoxifen 20 mg active tablets and matching tamoxifen placebo were supplied as white, round, biconvex tablets. Patients were randomised to receive one of three oral therapy regimens. The daily dose is one tablet of anastrozole (1 mg active or placebo) plus one tablet of tamoxifen (20 mg active or placebo). Patients were instructed to take their daily dose at approximately the same time each day. At entry to the trial patients received either a 13-week supply or a 26-week supply of trial material. Patients who received a 13-week supply received a further 13-week supply at the first follow-up visit (3-months). From the 6-month visit onwards, patients received a 26-week supply. In order to assess compliance, patients were asked to return all unused tablets at each visit.
Therapy was started as soon as possible after randomisation, but not more than 8 weeks after completion of surgery and chemotherapy. […] Primary chemotherapy must have started within 8 weeks of completing primary surgery. Patients who stop primary chemotherapy before completion of the planned number of cycles may also be randomised. […] These drugs include the following:— • cytotoxic chemotherapy; • oral adminstration of ketoconazole (antifungal) or related compounds (i.e. topical applications are acceptable); • other hormonal treatments for breast cancer.
Patients were reviewed for recurrence of breast cancer at all follow-up visits, using the following criteria, which are based on British Breast Group recommendations:—
New breast primaries (either contralateral or ipsilateral) were regarded as disease recurrence events in the statistical analyses of time to recurrence.
The primary statistical endpoint of the trial was time to disease recurrence (locoregional or distant recurrence, new primary breast cancer or death from any cause) and safety/tolerability. The secondary statistical endpoints were time to distant recurrence, time to death, the incidence of new breast primaries and the incidence of pre-defined adverse events. In summary, two treatment comparisons were made: (1) anastrozole alone compared to tamoxifen alone and (2) tamoxifen alone compared to anastrozole and tamoxifen in combination.

[1] = type: in vivo
Description: as §1, §2
At the major analysis, the incidence rates of the following pre-defined adverse events was formally compared between treatment groups defined by treatment received: hot flushes, nausea and vomiting, asthenia, mood disturbances, musculo-skeletal disorders, vaginal bleeding, vaginal discharge, endometrial cancer, fractures, cataract, venous thromboembolic events, and ischaemic cardiovascular disease. The primary analysis includes all patients who received trial treatment, analysed according to treatment received. A secondary subgroup analysis was also be undertaken, analysed according to trial treatment received, in patients with oestrogen receptor (ER) positive and/or progesterone receptor (PR) positive tumours, patients with ER negative and PR negative tumours, and all other patients remaining safety data was summarised and presented by treatment received.

breast cancer = conditions: adjuvant tamoxifen for two years or more, no concomitant chemotherapy; cited from earlier work
advanced breast cancer = conditions: advanced disease, cited from earlier work

CC(C)(C#N)c1cc(Cn2cncn2)cc(C(C)(C)C#N)c1 [anastrozole]
rate of disease recurrence, comparison in words (early breast cancer; FIG. 2, receptor positive population): superior to tamoxifen
HR, disease-free survival (early breast cancer; ITT (overall) population, versus tamoxifen, HR <1.00 favours anastrozole or the combination): 0.83
reduction in recurrence rate (early breast cancer; hormone receptor positive (ER and/or PR positive) patients, versus tamoxifen): 22%
reduction in the rate of recurrence events (early breast cancer; main analysis, all patients, versus tamoxifen, locoregional, distant, contralateral events and deaths): 17%
First event (early breast cancer): 317
First events: Contralateral (DCIS) (early breast cancer): 5
First events: Contralateral (invasive) (early breast cancer): 9
First events: Death - breast cancer (early breast cancer): 2
First events: Death - other reason (early breast cancer): 78
First events: Distant (early breast cancer): 156
First events: Locoregional (early breast cancer): 67
incidence of new primary (contralateral) breast cancer, comparison in words (early breast cancer; overall population): significantly more effective than tamoxifen
disease-free survival / rate of disease recurrence, comparison in words (early breast cancer; overall population, adjuvant treatment of early breast cancer): significantly more effective than tamoxifen; also recorded: superior to tamoxifen
incidence of new primary (contralateral) breast cancer, comparison in words (early breast cancer; overall population, listed as anastrazole): superiority
HR, incidence of new (contralateral) breast primaries (early breast cancer; overall population, versus tamoxifen): 0.42
OR, incidence of contralateral breast cancer (early breast cancer; overall population, versus tamoxifen, 1.00 would show equivalence): 0.42
HR, disease-free survival (early breast cancer; receptor positive population, versus tamoxifen): 0.78
overall tolerability in the adjuvant programme ([1]; FIG. 4, pre-defined adverse events): well tolerated
tolerability versus tamoxifen ([1]; endometrial cancer, vaginal bleeding, vaginal discharge, ischemic cerebrovascular events, venous thromboembolic events, hot flushes, weight gain): significantly better tolerated

CC/C(=C(\c1ccccc1)c1ccc(OCCN(C)C)cc1)c1ccccc1 [tamoxifen, tamoxifen citrate]
annual reduction in mortality (breast cancer): 24%
annual reduction in recurrence (breast cancer): 39%
First event (early breast cancer): 379
First events: Contralateral (DCIS) (early breast cancer): 3
First events: Contralateral (invasive) (early breast cancer): 30
First events: Death - breast cancer (early breast cancer): 1
First events: Death - other reason (early breast cancer): 81
First events: Distant (early breast cancer): 181
First events: Locoregional (early breast cancer): 83
patients who will respond (advanced breast cancer; ER and PR negative patients): < 10%
patients who will respond (advanced breast cancer; ER and PR positive patients): approximately 70%
tolerability versus anastrozole ([1]; musculoskeletal disorders and fractures): better tolerated
